Patent publication US20240002397A1, “3-AMINO PYRROLIDINE AND PIPERIDINE MACROCYCLIC OREXIN RECEPTOR AGONISTS” (Merck Sharp & Dohme LLC, priority 2020, published 2024)

Each compound was assayed against T1, human OX2R (Homo sapiens, UniProt O43614) (assay: IPOne (IP-1) orexin receptor agonist assay in CHO cells expressing human OX2R). Conditions: CHO, hOX2R IP-One; percentage of mean max effect of a reference compound at 1 uM with 100% activity.
T1 sequence (O43614 1-444): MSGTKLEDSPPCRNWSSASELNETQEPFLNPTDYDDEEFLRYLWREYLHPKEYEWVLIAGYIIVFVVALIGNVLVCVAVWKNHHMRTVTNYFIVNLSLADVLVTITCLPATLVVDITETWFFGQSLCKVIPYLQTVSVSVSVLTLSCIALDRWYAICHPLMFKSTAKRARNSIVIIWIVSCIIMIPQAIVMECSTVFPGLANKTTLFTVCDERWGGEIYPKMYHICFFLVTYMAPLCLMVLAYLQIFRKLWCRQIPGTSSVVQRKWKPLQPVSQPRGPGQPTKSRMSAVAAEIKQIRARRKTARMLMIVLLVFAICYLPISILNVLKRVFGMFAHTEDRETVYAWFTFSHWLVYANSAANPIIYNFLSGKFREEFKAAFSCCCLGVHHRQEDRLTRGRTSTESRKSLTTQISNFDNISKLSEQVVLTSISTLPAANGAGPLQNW

Row | Compound | Emax [%]
1 | C[C@@H]1C[C@H](NS(C)(=O)=O)C2COC3CCC(CC3)c3ccc(F)c(n3)NCCOC(=O)N21 (stereo partly shown) [Example 92, N-((2^1S,2^4S,5^2R,5^3S,5^5R)-1^5-fluoro-5^5-methyl-6-oxo-3,7-dioxa-10-aza-1(2,6)-pyridina-5(2,1)-pyrrolidina-2(1,4)-cyclohexanacyclodecaphane-5^3-yl)methanesulfonamide] | 98.9
2 | C[C@@H]1C[C@H](NS(C)(=O)=O)C2COC3CCC(CC3)c3cccc(c3)OCCCC(=O)N21 (stereo partly shown) [Example 20, N-((2^1S,2^4S, 5^2R,5^3S,5^5R)-5^5-methyl-6-oxo-3,10-dioxa-5(2,1)-pyrrolidina-1(1,3)-benzena-2(1,4)-cyclohexana-cyclodecaphane-5^3-yl) methanesulfonamide] | 101
3 | C[C@@H]1C[C@H](NS(C)(=O)=O)C2COC3CCC(CC3)c3cc(ccc3OC(F)(F)F)OCCOC(=O)N21 (stereo partly shown) [Example 53, N-((2^1S,2^4S,5^2R,5^3S,5^5R)-5^5-methyl-6-oxo-16-(trifluoromethoxy)-3,7,10-trioxa-5(2,1)-pyrrolidina-1(1,3)-benzena-2(1,4)-cyclohexanacyclodecaphane-5^3-yl)methanesulfonamide] | 103
4 | COC[C@@H]1C[C@H](NS(C)(=O)=O)C2COC3CCC(CC3)c3cc(C(F)F)cc(n3)OCCCOC(=O)N21 (stereo partly shown) [Example 85, N-((2^1S,2^4S,5^2R,5^3S,5^5S)-14-(difluoromethyl)-5^5-(methoxymethyl)-6-oxo-3,7,11-trioxa-1(2,6)-pyridina-5(2,1)-pyrrolidina-2(1,4)-cyclohexanacycloundecaphane-5^3-yl)methanesulfonamide] | 102
5 | CN(C)S(=O)(=O)N[C@@H]1CCCN2C(=O)OCCCCOc3cccc(c3)C3CCC(CC3)OC[C@H]12 [Example 27, N′-((2^1R,2^4R,5^2S,5^3R)-6-oxo-3,7,12-trioxa-5(2,1)-piperidina-1(1,3)-benzena-2(1,4)-cyclohexanacyclododecaphane-5^3-yl)-N,N-dimethyl-sulfamide] | 4.1
6 | C[C@@H]1C[C@H](NS(C)(=O)=O)C2COC3CCC(CC3)c3nc(c(F)cc3F)OCCCOC(=O)N21 (stereo partly shown) [Example 81, N-((2^1S,2^4S,5^2R,5^3S,5^5R)-1^3,1^5-difluoro-5^5-methyl-6-oxo-3,7,11-trioxa-1(2,6)-pyridina-5(2,1)-pyrrolidina-2(1,4)-cyclohexanacycloundecaphane-5^3-yl)methanesulfonamide] | 104
7 | C[C@@H]1C[C@H](NS(C)(=O)=O)C2COC3CCC(CC3)c3nc(ccc3C(F)(F)F)OCCOC(=O)N21 (stereo partly shown) [Example 68, N-((2^1S,2^4S,5^2R,5^3S,5^5R)-5^5-methyl-6-oxo-1^3-(trifluoromethyl)-3,7,10-trioxa-1(2,6)-pyridina-5(2,1)-pyrrolidina-2(1,4)-cyclohexanacyclodecaphane-5^3-yl)methanesulfonamide] | 102

Next, values leading:

Row | Emax [%] | Compound
8 | 99.2 | C[C@@H]1C[C@H](NS(C)(=O)=O)[C@@H]2CO[C@H]3CC[C@H](CC3)c3cc(C(F)(F)F)cc(n3)OCCCOC(=O)N12 [Example 51, N-((2^1S,2^4S,5^2R,5^3S,5^5R)-5^5-methyl-6-oxo-14-(trifluoromethyl)-3,7,11-trioxa-1(2,6)-pyridina-5(2,1)-pyrrolidina-2(1,4)-cyclohexanacycloundecaphane-5^3-yl)methanesulfonamide]
9 | 103 | C[C@@H]1C[C@H](NS(C)(=O)=O)C2COC3CCC(CC3)c3ccc(C#N)c(c3)OCCCOC(=O)N21 (stereo partly shown) [Example 45, N-((2^1S,2^4S, 5^2R,5^3S,5^5R)-1^4-cyano-5^5-methyl-6-oxo-3,7,11-trioxa-5(2,1)-pyrrolidina-1(1,3)-benzena-2(1,4)-cyclohexana-cyclounde-caphane-5^3-yl)methane-sulfonamide]
10 | 102 | C[C@@H]1C[C@H](NS(C)(=O)=O)C2COC3CCC(CC3)c3cc(F)cc(c3)OCCCOC(=O)N21 (stereo partly shown) [Example 42, N-((2^1S,2^4S, 5^2R,5^3S,5^5R)-1^5-fluoro-5^5-methyl-6-oxo-3,7,11-trioxa-5(2,1)-pyrrolidina-1(1,3)-benzena-2(1,4)-cyclohexana-cyclounde-caphane-5^3-yl)methane-sulfonamide]
11 | 102 | CN(C)S(=O)(=O)N[C@H]1CCN2C(=O)CCCCNc3cccc(c3)[C@H]3CC[C@H](CC3)OC[C@@H]12 [Example 23, N′-((2^1S,2^4S,5^2R,5^3S)-6-oxo-3-oxa-11-aza-5(2,1)-pyrrolidina-1(1,3)-benzena-2(1,4)-cyclohexanacycloundecaphane-5^3-yl)-N,N-dimethyl-sulfamide]
12 | 100 | C[C@@H]1C[C@H](NS(C)(=O)=O)C2COC3CCC(CC3)c3cccc(c3)OCCCOC(=O)N21 (stereo partly shown) [Example 18, N-((2^1S,2^4S, 5^2R,5^3S,5^5R)-5^5-methyl-6-oxo-3,7,11-trioxa-5(2,1)-pyrrolidina-1(1,3)-benzena-2(1,4)-cyclohexana-cyclounde-caphane-5^3-yl) methanesulfonamide]
13 | 98.4 | COc1cc2nc(c1)N(C)CCCOC(=O)N1C(COC3CCC2CC3)[C@@H](NS(C)(=O)=O)C[C@H]1C (stereo partly shown) [Example 95, N-((2^1S,2^4S,5^2R,5^3S,5^5R)-1^4-methoxy-5^5,1^1-dimethyl-6-oxo-3,7-dioxa-11-aza-1(2,6)-pyridina-5(2,1)-pyrrolidina-2(1,4)-cyclohexanacycloundecaphane-5^3-yl)methanesulfonamide]
14 | 102 | COc1cc2nc(c1)C1CCC(CC1)OCC1[C@@H](NS(C)(=O)=O)C[C@@H](C)N1C(=O)OCCCO2 (stereo partly shown) [Example 71, N-((2^1S,2^4S,5^2R,5^3S,5^5R)-1^4-methoxy-5^5-methyl-6-oxo-3,7,11-trioxa-1(2,6)-pyridina-5(2,1)-pyrrolidina-2(1,4)-cyclohexanacycloundecaphane-5^3-yl)methanesulfonamide]

Same assay, conditions: hOX2R IP-One; percentage of mean max effect of a reference compound at 1 uM with 100% activity

Row | Compound | Emax (%)
15 | CC1CC(NS(C)(=O)=O)C2COC3CCC(CC3)c3cc(C(F)(F)F)cc(n3)CCCCOC(=O)N12 (stereo not shown) [Example 109, N-((2^1S,2^4S,5^2R,5^3S,5^5R)-5^5-methyl-6-oxo-14-(trifluoromethyl)-3,7-dioxa-1(2,6)-pyridina-5(2,1)-pyrrolidina-2(1,4)-cyclohexanacycloundecaphane-5^3-yl)methanesulfonamide] | 102.4
16 | CN(C)S(=O)(=O)NC1CCN2C(=O)OCCCCc3cccc(c3)C3CCC(CC3)OCC12 (stereo not shown) [Example 21, N′-((2^1S,2^4S,5^2R,5^3S)-6-oxo-3,7-dioxa-5(2,1)-pyrrolidina-1(1,3)-benzena-2(1,4)-cyclohexanacycloundecaphane-5^3-yl)-N,N-dimethyl-sulfamide] | 100.5
17 | CS(=O)(=O)NC1CCCN2C(=O)CCCOc3cccc(c3)C3CCC(C3)OCC12 (stereo not shown) [Example 33, N-((2^1S,2^3R,5^2R,5^3S)-6-oxo-3,10-dioxa-5(2,1)-piperidina-1(1,3)-benzena-2(1,3)-cyclopentanacyclodecaphane-5^3-yl)methanesulfonamide] | −3.9

The next lines start with the values.

Row | Emax (%) | Compound
18 | 103.3 | CS(=O)(=O)NC1CCCN2C(=O)CCCOc3cccc(c3)C3CCC(C3)OCC12 (single isomer, unassigned) [Example 36, N-((2^1S,2^3R,5^2R,5^3S)-6-oxo-3,10-dioxa-5(2,1)-piperidina-1(1,3)-benzena-2(1,3)-cyclopentanacyclodecaphane-5^3-yl)methanesulfonamide]
19 | 100.8 | CN(C)S(=O)(=O)NC1CCCN2C(=O)OCCc3ccccc3C3CCC(CC3)OCC12 (single isomer, unassigned) [Example 38, N′-((2^1S,2^4S,5^2R,5^3S)-6-oxo-3,7-dioxa-5(2,1)-piperidina-1(1,2)-benzena-2(1,4)-cyclohexanacyclononaphane-5^3-yl)-N,N-dimethyl-sulfamide]
